Measurements reported in the supplement of paper PMC10307832.

Columns and labels:
Assay in all cases: relative viability (nuclei count vs DMSO), 5 days (fraction); higher = more cells survive
Lestaurtinib + Foretinib = compound: C[C@]12O[C@H](C[C@]1(O)CO)n1c3ccccc3c3c4c(c5c6ccccc6n2c5c31)CNC4=O [Lestaurtinib] + COc1cc2c(Oc3ccc(NC(=O)C4(C(=O)Nc5ccc(F)cc5)CC4)cc3F)ccnc2cc1OCCCN1CCOCC1 [Foretinib] (partner 0.25 µM)
Summary of the method: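 A single step with final 0.05% Triton X-100, 1% formaldehyde and 1 ug/ml Hoechst fixed the cells and stained nuclei 5 days after treatment. Lung cancer cell lines in 1536-well plates had been treated by pin tool the day after seeding with one drug alone or a fixed anchor-drug dose plus five library-drug doses (not always all listed) in √10 steps, and nuclei were counted on 4× images. Relative viability is the ratio of nuclei in treated wells to nuclei in vehicle wells, taken as the median of duplicate plates.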

[1] = compound: C1/C(=C\C2=CC=CS2)/C(=O)/C(=C/C3=CC=CS3)/C1
Summary of the method: (§1)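 Vehicle-anchored 1536-well plates of lung cancer cell lines, held overnight at 37 °C, were pinned with five library-drug doses (not always all listed) spaced by √10. No medium change followed over the next 5 days, after which the cells were fixed, permeabilised and Hoechst-stained together and imaged at 4×. Nuclei were counted with MetaXpress, and viability is treated-well nuclei over vehicle-well nuclei, taken as a median across plates. Plates passed with control CV below 25% and at least one doubling.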

TPCA-1 = compound: C1=CC(=CC=C1C2=CC(=C(S2)NC(=O)N)C(=O)N)F [TPCA-1]
Summary of the method: as §1

Lestaurtinib = compound: C[C@]12O[C@H](C[C@]1(O)CO)n1c3ccccc3c3c4c(c5c6ccccc6n2c5c31)CNC4=O [Lestaurtinib]
Summary of the method: as §1

Cell Line	relative viability (Lestaurtinib + Foretinib; first compound 0.005 µM)	relative viability (Lestaurtinib + Foretinib; first compound 0.01581 µM)	relative viability (Lestaurtinib + Foretinib; first compound 0.05 µM)	relative viability (Lestaurtinib + Foretinib; first compound 0.1581 µM)	relative viability (Lestaurtinib + Foretinib; first compound 0.5 µM)	relative viability ([1]; 0.2 µM)	relative viability ([1]; 0.6325 µM)	relative viability ([1]; 2 µM)	relative viability ([1]; 6.325 µM)	relative viability ([1]; 20 µM)	relative viability (TPCA-1; 0.04 µM)	relative viability (TPCA-1; 0.1265 µM)	relative viability (TPCA-1; 0.4 µM)	relative viability (TPCA-1; 1.265 µM)	relative viability (TPCA-1; 4 µM)	relative viability (Lestaurtinib; 0.005 µM)	relative viability (Lestaurtinib; 0.01581 µM)	relative viability (Lestaurtinib; 0.05 µM)	relative viability (Lestaurtinib; 0.1581 µM)	relative viability (Lestaurtinib; 0.5 µM)
NCI-H1355	1.03	1.08	0.696	0.802	0.356	1	0.967	0.995	0.833	0.963	1.09	0.89	0.94	0.859	0.751	1.07	1.01	0.777	0.582	0.508
EKVX	0.681	0.752	0.75	0.925	0.656	0.984	0.928	1.15	0.772	0.961	1.05	0.829	1.04	0.815	0.737	1	1.09	1.05	1.01	0.663
NCI-H441	1.07	1.02	0.795	0.933	0.277	1.14	1.24	1.14	0.867	0.995	1.22	0.816	0.882	0.704	0.425	1.02	1.05	0.611	0.61	0.438
NCI-H1975	1.09	0.99	0.927	0.731	0.538	0.99	0.891	0.886	0.838	0.969	0.974	0.887	0.932	0.87	0.576	1.04	1.03	0.829	0.774	0.649
HCC-78	0.51	0.494	0.524	0.545	0.308	0.972	0.927	1.25	0.823	0.908	0.972	0.834	0.892	0.788	0.391	0.823	0.943	0.547	0.577	0.44
NCI-H2085	1.01	0.885	0.801	1.05	0.826	1.08	1.01	1.01	0.898	0.961	0.989	0.989	0.988	0.897	0.875	0.989	0.99	0.996	1.01	0.786
H3255	0.981	0.888	0.898	0.703	0.419	1.03	1.04	0.977	0.899	0.972	1.08	0.898	0.916	0.816	0.783	1.03	1.08	0.935	0.744	0.511
NCI-H2087	1.13	1.31	0.848	0.703	0.266	1.13	0.872	1.2	0.783	1.01	1.18	0.966	0.982	0.915	0.542	1.03	0.951	0.816	0.834	0.367
LC-2-ad	0.946	0.903	0.817	0.647	0.324	1.02	1.04	1.07	0.868	0.958	1.09	0.902	1.01	0.901	0.377	1.01	1.15	0.757	0.54	0.301
PC-3 [JPC-3]	1.01	1.1	0.938	0.902	0.558	1.04	1.06	1.03	0.949	1.08	1.04	1	1.04	1.04	0.951	1.07	1.08	0.957	0.77	0.624
EBC-1	0.109	0.105	0.114	0.11	0.112	1.08	1.07	1.01	0.888	0.972	1.15	0.975	0.991	0.973	0.988	1.04	1.15	0.818	0.756	0.428
HCC-15	1.11	1.13	0.989	0.744	0.139	1.04	1.04	1.03	0.87	0.977	1.14	0.926	1.04	0.887	0.55	1.08	1.18	0.873	0.824	0.183
NCI-H1563	0.977	0.96	0.978	0.97	0.991	1.01	0.876	1.03	0.936	0.998	0.886	0.964	0.971	0.941	0.956	1.06	1.02	0.913	0.972	0.72
COR-L 105	1.29	1.19	1.27	1.18	0.669	0.989	0.895	0.956	0.71	0.836	1	0.9	0.99	0.806	0.615	0.897	0.978	0.808	0.572	0.313
NCI-H520	0.713	0.992	0.698	0.342	0.228	1.04	1.13	1.12	0.969	0.886	1.16	0.835	0.941	1.1	0.371	1.13	1.07	0.789	0.524	0.292
LU99A	0.733	0.73	0.575	0.469	0.247	1	0.966	1.02	0.788	0.892	1.1	0.909	0.989	0.919	0.437	0.892	0.893	0.625	0.489	0.251
